Source: patent US9682995B2, “Amino-substituted isothiazoles” (BAYER PHARMA AKTIENGESELLSCHAFT, priority 2013, dated 2017)

Key:
Experiment in all cases: Kinase Profiling (KINOMEscan)
Type in all cases: binding
[1] = target: 456 kinases (of these 395 non-mutant kinases) (Homo sapiens, UniProt Q9H2K8); details: TAOK3; 10 μM
[2] = target: 456 kinases (of these 395 non-mutant kinases) (Homo sapiens, UniProt O96013); details: PAK4; 10 μM
[3] = target: 456 kinases (of these 395 non-mutant kinases) (Homo sapiens, UniProt Q00536); details: PCTK1; 10 μM
[4] = target: 456 kinases (of these 395 non-mutant kinases) (Homo sapiens, UniProt Q07912); details: TNK2; 10 μM
[5] = target: 456 kinases (of these 395 non-mutant kinases) (Homo sapiens, UniProt O95835); details: LATS1; 10 μM
[6] = target: 456 kinases (of these 395 non-mutant kinases) (Homo sapiens, UniProt Q8N5S9); details: CAMKK1; 10 μM
[7] = target: 456 kinases (of these 395 non-mutant kinases) (Homo sapiens, UniProt Q9UM73, L1196M); details: ALK(L1196M); 10 μM
456 kinases (of these 395 non-mutant kinases) (Homo sapiens, UniProt Q9UM73, L1196M), sequence (Q9UM73 19-1620 L1196M limits assumed): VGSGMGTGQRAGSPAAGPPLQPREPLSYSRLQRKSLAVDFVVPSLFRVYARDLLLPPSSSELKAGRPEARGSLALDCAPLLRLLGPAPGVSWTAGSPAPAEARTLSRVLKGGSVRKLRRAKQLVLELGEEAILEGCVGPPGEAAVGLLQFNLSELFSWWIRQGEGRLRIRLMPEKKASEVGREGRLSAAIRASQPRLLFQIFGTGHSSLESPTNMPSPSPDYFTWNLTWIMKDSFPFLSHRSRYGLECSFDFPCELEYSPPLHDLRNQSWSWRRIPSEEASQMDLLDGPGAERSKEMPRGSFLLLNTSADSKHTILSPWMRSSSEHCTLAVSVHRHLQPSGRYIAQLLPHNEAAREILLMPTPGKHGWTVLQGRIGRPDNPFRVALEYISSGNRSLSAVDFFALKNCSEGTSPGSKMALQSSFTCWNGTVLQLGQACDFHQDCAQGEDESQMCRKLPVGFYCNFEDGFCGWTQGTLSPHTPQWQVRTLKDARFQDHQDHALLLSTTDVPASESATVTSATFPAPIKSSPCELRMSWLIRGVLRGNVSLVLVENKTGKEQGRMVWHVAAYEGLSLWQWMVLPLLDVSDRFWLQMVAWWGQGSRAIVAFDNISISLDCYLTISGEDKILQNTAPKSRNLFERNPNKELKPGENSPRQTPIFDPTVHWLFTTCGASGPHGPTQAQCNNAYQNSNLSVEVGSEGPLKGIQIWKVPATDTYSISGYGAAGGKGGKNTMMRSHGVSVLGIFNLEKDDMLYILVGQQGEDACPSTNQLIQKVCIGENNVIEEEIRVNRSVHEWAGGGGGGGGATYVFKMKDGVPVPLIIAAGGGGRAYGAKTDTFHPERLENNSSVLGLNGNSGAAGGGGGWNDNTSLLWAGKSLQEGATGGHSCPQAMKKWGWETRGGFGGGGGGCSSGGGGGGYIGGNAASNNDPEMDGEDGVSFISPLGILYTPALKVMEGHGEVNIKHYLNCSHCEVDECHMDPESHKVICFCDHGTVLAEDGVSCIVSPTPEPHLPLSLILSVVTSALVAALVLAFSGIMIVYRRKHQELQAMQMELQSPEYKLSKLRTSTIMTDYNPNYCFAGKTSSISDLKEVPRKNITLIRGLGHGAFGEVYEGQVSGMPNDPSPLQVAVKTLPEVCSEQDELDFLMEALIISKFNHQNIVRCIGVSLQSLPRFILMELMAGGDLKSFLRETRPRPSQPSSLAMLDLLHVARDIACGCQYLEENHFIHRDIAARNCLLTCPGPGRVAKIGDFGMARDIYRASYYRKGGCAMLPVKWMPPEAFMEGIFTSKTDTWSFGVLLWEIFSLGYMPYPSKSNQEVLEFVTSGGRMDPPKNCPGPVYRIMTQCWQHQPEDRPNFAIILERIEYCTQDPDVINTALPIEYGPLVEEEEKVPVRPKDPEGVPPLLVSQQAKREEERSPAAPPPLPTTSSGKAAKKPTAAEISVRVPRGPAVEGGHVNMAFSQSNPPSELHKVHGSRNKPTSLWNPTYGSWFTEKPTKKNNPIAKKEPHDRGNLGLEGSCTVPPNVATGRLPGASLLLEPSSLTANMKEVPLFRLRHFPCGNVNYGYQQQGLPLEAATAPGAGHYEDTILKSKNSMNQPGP

[8] = target: 456 kinases (of these 395 non-mutant kinases) (Homo sapiens, UniProt Q9BRS2); details: RIOK1; 10 μM
[9] = target: 456 kinases (of these 395 non-mutant kinases) (Homo sapiens, UniProt O14757); details: CHEK1; 10 μM
[10] = target: 456 kinases (of these 395 non-mutant kinases) (Homo sapiens, UniProt P28482); details: ERK2; 10 μM
[11] = target: 456 kinases (of these 395 non-mutant kinases) (Homo sapiens, UniProt Q9UM73, C1156Y); details: ALK(C1156Y); 10 μM
[12] = target: 456 kinases (of these 395 non-mutant kinases) (Homo sapiens, UniProt Q5S007, G2019S); details: LRRK2(G2019S); 10 μM
[13] = target: 456 kinases (of these 395 non-mutant kinases) (Homo sapiens, UniProt P10721, V559D); details: KIT(V559D); 10 μM
456 kinases (of these 395 non-mutant kinases) (Homo sapiens, UniProt P10721, V559D), sequence (P10721 26-976 V559D limits assumed): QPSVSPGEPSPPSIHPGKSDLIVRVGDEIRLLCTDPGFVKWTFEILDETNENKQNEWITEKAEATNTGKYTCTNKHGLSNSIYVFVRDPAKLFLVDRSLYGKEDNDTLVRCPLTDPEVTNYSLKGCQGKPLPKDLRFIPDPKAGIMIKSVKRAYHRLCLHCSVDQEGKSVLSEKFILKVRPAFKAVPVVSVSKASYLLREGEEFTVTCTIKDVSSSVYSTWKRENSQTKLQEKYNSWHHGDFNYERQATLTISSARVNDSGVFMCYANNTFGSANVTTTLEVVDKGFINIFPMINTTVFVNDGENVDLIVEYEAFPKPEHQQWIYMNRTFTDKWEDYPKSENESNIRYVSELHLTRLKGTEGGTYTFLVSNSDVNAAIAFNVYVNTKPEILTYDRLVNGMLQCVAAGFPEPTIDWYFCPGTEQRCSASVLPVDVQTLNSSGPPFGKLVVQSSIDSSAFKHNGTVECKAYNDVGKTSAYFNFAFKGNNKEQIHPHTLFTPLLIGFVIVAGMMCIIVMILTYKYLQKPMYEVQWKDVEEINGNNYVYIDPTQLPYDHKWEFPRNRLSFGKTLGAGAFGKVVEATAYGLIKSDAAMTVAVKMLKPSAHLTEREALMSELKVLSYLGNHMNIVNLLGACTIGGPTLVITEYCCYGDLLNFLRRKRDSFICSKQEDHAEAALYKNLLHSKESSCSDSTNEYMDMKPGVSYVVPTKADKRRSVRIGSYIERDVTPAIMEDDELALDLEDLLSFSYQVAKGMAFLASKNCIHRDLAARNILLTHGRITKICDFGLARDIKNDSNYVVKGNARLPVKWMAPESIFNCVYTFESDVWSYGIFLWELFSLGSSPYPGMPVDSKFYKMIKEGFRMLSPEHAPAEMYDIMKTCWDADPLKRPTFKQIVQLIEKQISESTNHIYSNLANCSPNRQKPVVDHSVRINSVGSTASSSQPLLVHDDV

[14] = target: 456 kinases (of these 395 non-mutant kinases) (Homo sapiens, UniProt P36896); details: ACVR1B; 10 μM
[15] = target: 456 kinases (of these 395 non-mutant kinases) (Homo sapiens, UniProt Q16659); details: ERK3; 10 μM
[16] = target: 456 kinases (of these 395 non-mutant kinases) (Homo sapiens, UniProt Q13554); details: CAMK2B; 10 μM
[17] = target: 456 kinases (of these 395 non-mutant kinases) (Homo sapiens, UniProt Q04771); details: ACVR1; 10 μM
456 kinases (of these 395 non-mutant kinases) (Homo sapiens, UniProt Q04771), sequence (Q04771 21-509 limits assumed, change not shown): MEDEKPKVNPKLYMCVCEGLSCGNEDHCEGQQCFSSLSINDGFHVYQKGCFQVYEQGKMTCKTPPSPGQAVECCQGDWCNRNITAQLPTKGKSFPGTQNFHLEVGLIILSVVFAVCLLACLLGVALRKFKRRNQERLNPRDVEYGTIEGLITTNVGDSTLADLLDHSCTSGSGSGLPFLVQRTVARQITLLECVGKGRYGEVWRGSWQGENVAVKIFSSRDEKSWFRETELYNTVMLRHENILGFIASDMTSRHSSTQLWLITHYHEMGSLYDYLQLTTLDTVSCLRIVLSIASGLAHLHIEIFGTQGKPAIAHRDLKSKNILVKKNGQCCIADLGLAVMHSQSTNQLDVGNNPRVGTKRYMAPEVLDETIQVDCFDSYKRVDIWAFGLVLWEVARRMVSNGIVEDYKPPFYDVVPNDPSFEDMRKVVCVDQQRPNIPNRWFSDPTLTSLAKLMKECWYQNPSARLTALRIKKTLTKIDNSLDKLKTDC

[18] = target: 456 kinases (of these 395 non-mutant kinases) (Homo sapiens, UniProt O14965); details: AURKA; 10 μM
[19] = target: 456 kinases (of these 395 non-mutant kinases) (Homo sapiens, UniProt Q9NY57); details: YANK2; 10 μM
[20] = target: 456 kinases (of these 395 non-mutant kinases) (Homo sapiens, UniProt P68400); details: CSNK2A1; 10 μM
[21] = target: 456 kinases (of these 395 non-mutant kinases) (Homo sapiens, UniProt P42336, E542K); details: PIK3CA(E542K); 10 μM
[22] = target: 456 kinases (of these 395 non-mutant kinases) (Homo sapiens, UniProt P08581, Y1235D); details: MET(Y1235D); 10 μM
[23] = target: 456 kinases (of these 395 non-mutant kinases) (Homo sapiens, UniProt P50613); details: CDK7; 10 μM
[24] = target: 456 kinases (of these 395 non-mutant kinases) (Homo sapiens, UniProt P41743); details: PRKCI; 10 μM
456 kinases (of these 395 non-mutant kinases) (Homo sapiens, UniProt P41743), sequence (P41743 2-596 limits assumed, change not shown): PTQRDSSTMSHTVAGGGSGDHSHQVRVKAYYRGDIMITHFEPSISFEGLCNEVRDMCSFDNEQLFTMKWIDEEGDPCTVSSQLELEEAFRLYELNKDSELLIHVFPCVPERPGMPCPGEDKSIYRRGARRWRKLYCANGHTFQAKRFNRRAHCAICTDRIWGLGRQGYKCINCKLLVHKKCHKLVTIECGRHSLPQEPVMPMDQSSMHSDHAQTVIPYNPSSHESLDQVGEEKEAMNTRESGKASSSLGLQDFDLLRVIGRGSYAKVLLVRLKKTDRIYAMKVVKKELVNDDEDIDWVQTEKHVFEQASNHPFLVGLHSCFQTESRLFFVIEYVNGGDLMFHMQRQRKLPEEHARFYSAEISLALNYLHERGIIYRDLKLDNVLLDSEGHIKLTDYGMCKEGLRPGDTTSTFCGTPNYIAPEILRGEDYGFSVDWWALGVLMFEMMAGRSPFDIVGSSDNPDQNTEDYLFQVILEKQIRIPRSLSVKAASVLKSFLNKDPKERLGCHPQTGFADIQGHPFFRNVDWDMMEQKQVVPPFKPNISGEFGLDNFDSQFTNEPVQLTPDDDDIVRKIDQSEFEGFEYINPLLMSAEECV

[25] = target: 456 kinases (of these 395 non-mutant kinases) (Homo sapiens, UniProt Q13555); details: CAMK2G; 10 μM
[26] = target: 456 kinases (of these 395 non-mutant kinases) (Homo sapiens, UniProt Q06187); details: BTK; 10 μM
456 kinases (of these 395 non-mutant kinases) (Homo sapiens, UniProt Q06187), sequence (Q06187 2-659 limits assumed, change not shown): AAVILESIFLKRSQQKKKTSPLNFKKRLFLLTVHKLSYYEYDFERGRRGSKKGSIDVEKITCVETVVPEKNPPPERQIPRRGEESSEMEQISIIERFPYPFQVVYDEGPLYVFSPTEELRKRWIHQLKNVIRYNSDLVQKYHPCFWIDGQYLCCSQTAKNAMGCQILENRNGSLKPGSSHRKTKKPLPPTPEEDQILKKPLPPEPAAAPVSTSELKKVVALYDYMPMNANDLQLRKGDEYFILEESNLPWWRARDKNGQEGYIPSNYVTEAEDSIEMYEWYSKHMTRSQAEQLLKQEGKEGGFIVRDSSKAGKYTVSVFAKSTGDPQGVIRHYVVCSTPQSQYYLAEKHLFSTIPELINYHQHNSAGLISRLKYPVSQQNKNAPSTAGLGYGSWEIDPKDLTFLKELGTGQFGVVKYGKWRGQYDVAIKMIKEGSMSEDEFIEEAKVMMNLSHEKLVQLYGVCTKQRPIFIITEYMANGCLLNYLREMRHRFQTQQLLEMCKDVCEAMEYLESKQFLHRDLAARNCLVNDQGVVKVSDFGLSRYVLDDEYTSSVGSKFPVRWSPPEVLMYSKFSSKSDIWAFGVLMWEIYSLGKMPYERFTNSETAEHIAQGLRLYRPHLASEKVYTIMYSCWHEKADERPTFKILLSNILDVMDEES

[27] = target: 456 kinases (of these 395 non-mutant kinases) (Homo sapiens, UniProt O15530); details: PDPK1; 10 μM
[28] = target: 456 kinases (of these 395 non-mutant kinases) (Homo sapiens, UniProt Q96RR4); details: CAMKK2; 10 μM
456 kinases (of these 395 non-mutant kinases) (Homo sapiens, UniProt Q96RR4), sequence (Q96RR4 2-588 limits assumed, change not shown): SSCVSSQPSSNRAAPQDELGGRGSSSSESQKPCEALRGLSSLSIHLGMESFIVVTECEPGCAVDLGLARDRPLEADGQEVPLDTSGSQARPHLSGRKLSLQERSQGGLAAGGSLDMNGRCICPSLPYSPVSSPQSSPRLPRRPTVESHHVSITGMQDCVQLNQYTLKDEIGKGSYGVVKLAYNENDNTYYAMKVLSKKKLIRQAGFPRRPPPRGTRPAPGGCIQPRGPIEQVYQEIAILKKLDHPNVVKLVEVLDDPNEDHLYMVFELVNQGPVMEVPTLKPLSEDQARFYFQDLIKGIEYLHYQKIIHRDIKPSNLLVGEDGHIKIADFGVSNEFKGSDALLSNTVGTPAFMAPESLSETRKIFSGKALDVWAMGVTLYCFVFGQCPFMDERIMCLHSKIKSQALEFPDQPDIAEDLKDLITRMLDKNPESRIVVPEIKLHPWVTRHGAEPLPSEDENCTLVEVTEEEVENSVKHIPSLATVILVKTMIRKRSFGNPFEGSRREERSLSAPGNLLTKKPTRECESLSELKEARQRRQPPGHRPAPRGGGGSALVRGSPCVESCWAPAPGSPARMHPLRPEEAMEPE

[29] = target: 456 kinases (of these 395 non-mutant kinases) (Homo sapiens, UniProt O15075); details: DCAMKL1; 10 μM
[30] = target: 456 kinases (of these 395 non-mutant kinases) (Homo sapiens, UniProt P14616); details: INSRR; 10 μM
[31] = target: 456 kinases (of these 395 non-mutant kinases) (Homo sapiens, UniProt Q9UBE8); details: NLK; 10 μM
[32] = target: 456 kinases (of these 395 non-mutant kinases) (Homo sapiens, UniProt O94768); details: DRAK2; 10 μM

With `CCc1ccccc1NC(=O)c1c(C)nsc1Nc1cnc2cc(F)ccc2n1` [Example 20, N-(2-Ethylphenyl)-5-[(6-fluoroquinoxalin-2-yl)amino]-3-methyl-1,2-thiazole-4-carboxamide] the “% Ctrl @ 10 μM” value [1] was 100 % Ctrl, the “% Ctrl @ 10 μM” value [2] was 100 % Ctrl and the “% Ctrl @ 10 μM” value [3] was 100 % Ctrl. The “% Ctrl @ 10 μM” value [4] was 93 % Ctrl, the “% Ctrl @ 10 μM” value [5] was 100 % Ctrl and the “% Ctrl @ 10 μM” value [6] was 80 % Ctrl. For the same compound, the “% Ctrl @ 10 μM” value [7] was 100 % Ctrl, the “% Ctrl @ 10 μM” value [8] was 100 % Ctrl and the “% Ctrl @ 10 μM” value [9] was 73 % Ctrl. For the same compound, the “% Ctrl @ 10 μM” value [10] was 96 % Ctrl, the “% Ctrl @ 10 μM” value [11] was 100 % Ctrl and the “% Ctrl @ 10 μM” value [12] was 92 % Ctrl. For the same compound, the “% Ctrl @ 10 μM” value [13] was 61 % Ctrl, the “% Ctrl @ 10 μM” value [14] was 100 % Ctrl and the “% Ctrl @ 10 μM” value [15] was 68 % Ctrl. For the same compound, the “% Ctrl @ 10 μM” value [16] was 82 % Ctrl, the “% Ctrl @ 10 μM” value [17] was 77 % Ctrl and the “% Ctrl @ 10 μM” value [18] was 100 % Ctrl. The “% Ctrl @ 10 μM” value [19] was 100 % Ctrl, the “% Ctrl @ 10 μM” value [20] was 85 % Ctrl and the “% Ctrl @ 10 μM” value [21] was 81 % Ctrl. For the same compound, the “% Ctrl @ 10 μM” value [22] was 77 % Ctrl, the “% Ctrl @ 10 μM” value [23] was 92 % Ctrl and the “% Ctrl @ 10 μM” value [24] was 100 % Ctrl. The “% Ctrl @ 10 μM” value [25] was 75 % Ctrl, the “% Ctrl @ 10 μM” value [26] was 98 % Ctrl and the “% Ctrl @ 10 μM” value [27] was 86 % Ctrl. For the same compound, the “% Ctrl @ 10 μM” value [28] was 74 % Ctrl, the “% Ctrl @ 10 μM” value [29] was 92 % Ctrl and the “% Ctrl @ 10 μM” value [30] was 76 % Ctrl. The “% Ctrl @ 10 μM” value [31] was 100 % Ctrl and the “% Ctrl @ 10 μM” value [32] was 93 % Ctrl.
